Test systems include SF-295 CNS; SW-620 colon; SF-539 CNS; OVCAR-8 ovarian; ACHN renal; NCI-H226 lung; SK-MEL-5 melanoma; TK-10 renal; HCC-2998 colon; OVCAR-4 ovarian.
What all share (assay): NCI tumour cell line growth inhibition, 48 h

The structures appear in SMILES notation. “And” between values parts separate entries of the source, which are not always exact repeats. Equal values may be shown once.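 1) Cells in 96-well plates. 2) Compound, 48 h, 5 concentrations. 3) Linear interpolation between surrounding doses. 4) Unreached endpoint = highest concentration. GI50 is the concentration that inhibits growth by half. TGI is the concentration that stops growth completely.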 Where a SMILES comes first, the peptide text is derived from it. [ ]: non-standard residue; d: D form.

Consider `COc1cc([C@@H]2c3cc4c(cc3[C@@H](NCc3cccc(F)c3)C3COC(=O)[C@@H]32)OCO4)cc(OC)c1O` (stereo partly specified), for which the TGI is > 65 µM in the assay with SF-295 CNS; 22.5 µM with SW-620 colon; 10.8 µM in the assay on SF-539 CNS; 25.3 µM in the assay on OVCAR-8 ovarian; 4.61 µM with ACHN renal; 6.55 µM with NCI-H226 lung. Further, the TGI with SK-MEL-5 melanoma was 17.9 µM; in the assay with TK-10 renal it was 40.9 µM; in the assay on HCC-2998 colon, 20.9 µM; with OVCAR-4 ovarian it was > 65 µM.

As to `CCOc1ccccc1NC(=O)C1=C(C)NC(C)=C(C(=O)Nc2ccccc2OCC)C1c1cccc([N+](=O)[O-])c1`, the TGI with SF-295 CNS, in the assay with SW-620 colon, with SF-539 CNS, in the assay on OVCAR-8 ovarian, in the assay on ACHN renal and with NCI-H226 lung was > 100 µM throughout. Further, the TGI in the assay with SK-MEL-5 melanoma, in the assay on TK-10 renal, in the assay on HCC-2998 colon and in the assay on OVCAR-4 ovarian was > 100 µM in each case.

With `CSCC[C@H](NC(=O)[C@@H](N)CC(N)=O)C(=O)N[C@@H](Cc1c[nH]c2ccccc12)C(=O)N[C@@H](CCC(N)=O)C(=O)N[C@@H](CCC(=O)O)C(=O)N[C@H](C(=O)NCC(=O)N[C@@H](CCCCN)C(=O)N[C@H](C)C(=O)O)C(C)C` (H-NMWQEVGK[dA]-OH), the TGI in the assay with SF-295 CNS, in the assay on SW-620 colon, in the assay with SF-539 CNS, in the assay on OVCAR-8 ovarian, in the assay with ACHN renal and in the assay with NCI-H226 lung was > 100 µM throughout. The TGI with SK-MEL-5 melanoma, in the assay with TK-10 renal, in the assay with HCC-2998 colon and in the assay with OVCAR-4 ovarian was > 100 µM each time.

For `NC1=C(O)C(=O)C(c2c[nH]c3ccc(OCc4ccccc4)cc23)O1` (stereo unspecified), the TGI in the assay with SF-295 CNS, with SW-620 colon, in the assay on SF-539 CNS, with OVCAR-8 ovarian, in the assay with ACHN renal and in the assay on NCI-H226 lung was > 100 µM in each case. For the same molecule, the TGI was > 100 µM in the assay with SK-MEL-5 melanoma, > 100 µM with TK-10 renal, > 76.3 µM in the assay with HCC-2998 colon and > 100 µM with OVCAR-4 ovarian.

For the molecule `N=C1C=C(N)C(=O)c2ccccc21`, the GI50 in the assay on SF-295 CNS was 639 nM; in the assay with SW-620 colon it was 220 nM; in the assay with SF-539 CNS it was 181 nM; in the assay with OVCAR-8 ovarian it was 0.248 µM; in the assay on ACHN renal it was 182 nM; in the assay on NCI-H226 lung, 0.19 µM. Also, the GI50 in the assay with SK-MEL-5 melanoma is 174 nM; with TK-10 renal, 0.599 µM; in the assay with HCC-2998 colon it was 1390 nM; in the assay on OVCAR-4 ovarian it was 0.103 µM. Besides, the TGI came out at 1.53 µM with SF-295 CNS; 0.509 µM in the assay on SW-620 colon; 0.347 µM in the assay with SF-539 CNS; 0.661 µM in the assay on OVCAR-8 ovarian; 0.369 µM in the assay with ACHN renal; 0.394 µM in the assay with NCI-H226 lung. The TGI with SK-MEL-5 melanoma came out at 0.319 µM; in the assay with TK-10 renal it was 1.7 µM; in the assay with HCC-2998 colon, 2.76 µM; with OVCAR-4 ovarian, 0.243 µM.

Turning to `Cc1cc2nc(-c3ccc(O)c(O)c3)n(Cc3ccc(O)c(O)c3)c2cc1C`, the GI50 with SF-295 CNS is 20200 nM; in the assay on SW-620 colon it was 24700 nM; in the assay with SF-539 CNS, 19700 nM; in the assay with OVCAR-8 ovarian it was 26.4 µM; in the assay on ACHN renal, 15300 nM; in the assay with NCI-H226 lung, 18.7 µM. In addition, the GI50 in the assay with SK-MEL-5 melanoma was 17500 nM; with TK-10 renal it was 26.9 µM; in the assay on HCC-2998 colon, 24600 nM; in the assay with OVCAR-4 ovarian, 54.9 µM. Moreover, the TGI in the assay with SF-295 CNS was 66.3 µM; with SW-620 colon it was > 100 µM; in the assay on SF-539 CNS it was > 100 µM; in the assay on OVCAR-8 ovarian, > 100 µM; with ACHN renal it was 59.6 µM; with NCI-H226 lung, 35 µM. For the same molecule, the TGI is 39.9 µM with SK-MEL-5 melanoma, 82.6 µM in the assay on TK-10 renal, 56.3 µM with HCC-2998 colon and > 100 µM in the assay with OVCAR-4 ovarian.

As for `COC(=O)Nc1nc2ccc(C(=O)c3cccs3)cc2[nH]1`, the GI50 in the assay on SF-295 CNS was 109 nM; with SW-620 colon, 67.2 nM; with SF-539 CNS it was 25.9 nM and 210 nM; in the assay on OVCAR-8 ovarian it was 0.487 µM; in the assay on ACHN renal, 1240 nM; in the assay with NCI-H226 lung, 0.275 µM. Further, the GI50 in the assay on SK-MEL-5 melanoma was 21.5 nM and 66.6 nM; in the assay on HCC-2998 colon it was 57.4 nM and 197 nM. In addition, the TGI in the assay with SW-620 colon was > 100 µM; with OVCAR-8 ovarian, 15.7 µM and > 100 µM; in the assay with ACHN renal it was 87.5 µM and > 100 µM; in the assay with NCI-H226 lung, 1.26 µM and 2.54 µM; in the assay with SK-MEL-5 melanoma it was 6.43 µM and 2.06 µM; in the assay with TK-10 renal, 60.4 µM and > 100 µM. Moreover, the TGI with HCC-2998 colon was 11.5 µM and > 100 µM; in the assay with OVCAR-4 ovarian, 70.9 µM and > 100 µM.

As for `Cc1nc2sc(C(=O)Nc3ccccc3)c(N)c2cc1C(=O)c1ccccc1`, the GI50 is 1830 nM in the assay on SF-295 CNS; 2290 nM in the assay with SW-620 colon; 1660 nM with SF-539 CNS; 3.86 µM in the assay on OVCAR-8 ovarian; 4520 nM in the assay with ACHN renal; 16.9 µM in the assay on NCI-H226 lung. Further, the GI50 in the assay with SK-MEL-5 melanoma was 1970 nM; in the assay on TK-10 renal it was 3.09 µM; in the assay with HCC-2998 colon, 2190 nM; in the assay on OVCAR-4 ovarian it was 34.7 µM. Further, the TGI in the assay on SF-295 CNS, in the assay with SW-620 colon, in the assay with SF-539 CNS, with OVCAR-8 ovarian, with ACHN renal and with NCI-H226 lung was > 50 µM throughout. For the same molecule, the TGI with SK-MEL-5 melanoma is 8.13 µM; with TK-10 renal, > 50 µM; with HCC-2998 colon it was 25.8 µM; in the assay on OVCAR-4 ovarian it was > 50 µM.

Regarding `C=C1C(=O)OC2(C)CCC1CC1OC1(C)CCC=C(C)CCC2O` (stereo unspecified), the TGI with SF-295 CNS, with SW-620 colon, with SF-539 CNS, in the assay with OVCAR-8 ovarian, in the assay on ACHN renal and in the assay with NCI-H226 lung was > 100 µM throughout. Moreover, the TGI with SK-MEL-5 melanoma, in the assay on TK-10 renal, in the assay with HCC-2998 colon and with OVCAR-4 ovarian was > 100 µM each time.

`COc1ccc(/C=C2/CSC/C(=C/c3ccc(OC)c(OC)c3)C2=O)cc1OC`: the TGI came out at 16.3 µM with SF-295 CNS; 3.63 µM in the assay with SW-620 colon; 10.6 µM with SF-539 CNS; 2.19 µM in the assay with OVCAR-8 ovarian; 5.58 µM in the assay with ACHN renal; 7.15 µM with NCI-H226 lung. The TGI in the assay on SK-MEL-5 melanoma came out at 7.01 µM; with TK-10 renal, 29.5 µM; with HCC-2998 colon, 6.28 µM; in the assay on OVCAR-4 ovarian, 5.49 µM.

As for `COc1cc2c(=O)n(CC3CCCCC3)c3c4cc[nH]c4ncc3c2cc1OC`, the GI50 in the assay with SF-295 CNS was 2180 nM; with SW-620 colon, 2000 nM; in the assay with SF-539 CNS, 681 nM; in the assay with OVCAR-8 ovarian, 5 µM; in the assay on ACHN renal, 2160 nM; in the assay with NCI-H226 lung, 0.0556 µM. Moreover, the GI50 in the assay on SK-MEL-5 melanoma is 4370 nM; in the assay on TK-10 renal, 4.66 µM; in the assay on HCC-2998 colon, 18700 nM; with OVCAR-4 ovarian it was 1.1 µM. In addition, the TGI was 10.7 µM in the assay with SF-295 CNS; 14.6 µM in the assay with SW-620 colon; 3.08 µM in the assay on SF-539 CNS; > 50 µM in the assay on OVCAR-8 ovarian; 10.4 µM in the assay on ACHN renal; 17.2 µM in the assay on NCI-H226 lung. In addition, the TGI in the assay on SK-MEL-5 melanoma is 25.9 µM; with TK-10 renal, 18.9 µM; in the assay with HCC-2998 colon, > 50 µM; in the assay with OVCAR-4 ovarian, 10.3 µM.

Turning to `CCN1CCC(O)(/C=C/c2ccccc2)C(C(=O)/C=C/c2ccccc2)C1` (stereo unspecified), the TGI came out at 9.73 µM in the assay with SF-295 CNS; 3.41 µM in the assay with SW-620 colon; 3.76 µM with SF-539 CNS; 4.55 µM in the assay on OVCAR-8 ovarian; 3.23 µM in the assay on ACHN renal; 9.93 µM in the assay with NCI-H226 lung. Moreover, the TGI in the assay with SK-MEL-5 melanoma was determined as 12.2 µM; in the assay with TK-10 renal, 7.88 µM; with HCC-2998 colon it was 4.01 µM; in the assay on OVCAR-4 ovarian, 8.01 µM.

As for `CNc1nc(-c2ccc3c(N)n[nH]c3c2)cc(N2C[C@@H](C(=O)NC3CCCCC3)CC[C@H]2C)n1`, the GI50 in the assay with SF-295 CNS was 2610 nM; in the assay with SW-620 colon, 6850 nM; in the assay on SF-539 CNS, 3760 nM; in the assay with OVCAR-8 ovarian it was 9.16 µM; with ACHN renal it was 2810 nM; in the assay with NCI-H226 lung, 6.74 µM. Besides, the GI50 is 2840 nM with SK-MEL-5 melanoma, 0.366 µM in the assay with TK-10 renal, 8530 nM with HCC-2998 colon and 3.6 µM in the assay on OVCAR-4 ovarian. Further, the TGI was determined as 15.8 µM with SF-295 CNS; 23.4 µM in the assay with SW-620 colon; 17.8 µM in the assay on SF-539 CNS; 24.7 µM with OVCAR-8 ovarian; 19.9 µM in the assay with ACHN renal; 22.7 µM with NCI-H226 lung. The TGI turned out to be 13.9 µM in the assay with SK-MEL-5 melanoma, 9.46 µM in the assay on TK-10 renal, 21.7 µM in the assay with HCC-2998 colon and 23.1 µM with OVCAR-4 ovarian.

With `N#CC(C#N)C(c1ccccc1)c1ccccc1`, the TGI in the assay on SF-295 CNS, in the assay with SW-620 colon, in the assay on SF-539 CNS, in the assay with OVCAR-8 ovarian, with ACHN renal and with NCI-H226 lung was > 100 µM each time. Also, the TGI in the assay on SK-MEL-5 melanoma, in the assay with TK-10 renal, in the assay with HCC-2998 colon and with OVCAR-4 ovarian was > 100 µM throughout.

The values above are taken from PubChem BioAssay (NCI).
